Values of other authors in US6417191B1, “Synergistic combinations of zidovudine, 1592U89 and 3TC” (GlaxoSmithKline, priority 1995, dated 2002).
Like-named read-outs stand apart in the source and are kept apart here.

Key:
[1] = system: HIV
[2] = plasma, patients, therapeutic doses of each drug as a single agent

Structure (SMILES) | Peak Level (in vivo) [µM] | Trough Level (in vivo) [µM] | Peak Level [2] [µM] | Trough Level [2] [µM] | activity against HIV [1]
Cc1cn([C@H]2C[C@H](N=[N+]=[N-])[C@@H](CO)O2)c(=O)[nH]c1=O [zidovudine, 3′-azido-3′-deoxythymidine] | 5 | 0.4 |  |  | 
Nc1ccn([C@@H]2CS[C@H](CO)O2)c(=O)n1 (single isomer, unassigned) [3TC] |  |  | 9 | 0.7 | 
Nc1nc(=O)n([C@@H]2CS[C@H](CO)O2)cc1F (relative stereo) [FTC, (2R,cis)-4-amino-5-fluoro-1-(2-hydroxymethyl-1,3-oxathiolan-5-yl)-(1H)-pyrimidin-2-one] | 10 | 0.5 |  |  | 
Nc1nc(NC2CC2)c2ncn([C@H]3C=C[C@@H](CO)C3)c2n1 (relative stereo) [1592U89, (1S,4R)-cis-4-[2-amino-6-(cyclopropylamino)-9H-purin-9-yl]-2-cyclopentene-1-methanol] | 3.5 | 0.1 |  |  | potent activity against HIV
Nc1ccn(C2CSC(CO)O2)c(=O)n1 (racemic) [BCH-189, 4-amino-1-(2-hydroxymethyl-1,3-oxathiolan-5-yl)-(1H)-pyrimidin-2-one] |  |  |  |  | anti-HIV activity
